{"source": "patent US10799622B2", "about": "“Reducing post-operative adhesion formation with intraperitoneal glutamine” (AdeTherapeutics Inc., priority 2005, dated 2020)", "key": {"[1]": {"system": "post-operative adhesion formation", "test": "Modified cecal puncture abdominal surgery, histological assessment of post-operative adhesions (Example 1)", "assay_type": "in vivo, male Wistar rats", "settings": "for complications due to intraperitoneal use: 0.3-1.5 g/kg intraperitoneally; for reducing and/or preventing post-operative adhesions (including secondary adhesions): administered intra-peritoneally; for acute inflammatory response (macrophages and macrophage chemotactic proteins): days 3-7, vs saline and non-treatment surgical groups", "experimental": "70 plus male Wistar rats (over 350 g each) were assessed histologically on post-operative days 1,3,5,7,10, 30, and at about 6 weeks. The rats were randomly distributed based on the mode of treatment, type of sutures and presence or absence of hemorrhage during surgery. Initially, there were three surgery groups (alanyl-glutamine treatment, saline, no treatment) plus a control (no surgery).\nThe rats were anaesthetized with halothane/Ketamine. Open surgery involving a midline sub-umbilical incision and a modified cecal puncture with pulstring to prevent soilage after abdominal closure was done. The procedure involved some fecal extrusion, mimicking clinical scenarios of iatrogenic/traumatic perforations of the bowel. Alanyl-glutamine [Degussa; Coubevoie, France] […] (1.5 g/kg) was instilled into the peritoneal cavity from a syringe. The cecum, abdomen, and the skin were closed in layers using the same suture. Various absorbable (3/0 Vicryl™, 3/0 Monocryl™, 3/0 PDS™, 2/0 Maxon™) and non-absorbable sutures (3/0 Prolene™, 3/0 Ethibond™, 4/0 & 5/0 Surgilene™, 3/0 Novafil™) were used. The wound was infiltrated with local anesthetic. The animals were given sufficient chow to eat (20 g/day≈2 mmole/kg/day). The gastrointestinal tract and omentum were harvested from the stomach to the sigmoid colon and fixed in formaldehyde solution for evaluation.\nThe severity of adhesions was assessed histologically using standard Haematoxylin & Eosin and Masson trichrome stained slides. The latter helped delineate the degree of fibrosis and collagen deposition.\nSemi-quantitative analysis was done by scoring the average number of milky spots per high-power-field (HPF). Quantitative statistical analysis was done using the T-test between the experimental groups. Milky spots are a marker for inflammation and adhesion formation."}, "[2]": {"system": "post-operative adhesion formation", "test": "Surgery as in Example 1 with Marlex mesh inserted, Zuhlke adhesion score (Example 2)", "assay_type": "in vivo, rats", "settings": "day 90", "experimental": "Previous studies show a high incidence of adhesion formation when surgical mesh is employed as a reinforcing material [6a, 6b]. We repeated trials as described in Example 1, inserting Marlex™ mesh during the procedure on the surgical groups.\nSeverity of adhesions was assessed at day 90 using the adhesion score of Zuhlke, et al.. This scoring procedure has been described in the literature for assessment of other potential treatments for adhesions. […] This differs from previous measurements of adhesions using polypropylene mesh which reported up to about 90% adhesion formation [6a]."}, "secondary adhesions": {"system": "secondary adhesions", "test": "Secondary adhesions after adhesiolysis in rats with mesh implants, Zuhlke score (Example 3)", "assay_type": "in vivo, Sprague-Dawley rats", "settings": "three weeks after adhesiolysis and installation, six months after initial surgery", "experimental": "Adhesions tend to recur once in place. We examined the effect of alanyl-glutamine treatment on such secondary adhesions. The modified caecal perforation with pulstring closure procedure described in Example 1 was performed on 9 Sprague-Dawley rats. These were divided into 5 groups, each group receiving a different form of mesh (INTERCEED™; PROCEED™; BARD™ composite; prolene; and a mesh which was allowed to be “infected” by repeated re-opening of the wound). The surgical procedure with mesh implacement was performed without application of a glutamine source. Six months after initial surgery, a laparotomy was performed on each rat then adhesiolysis followed by installation of alanyl-glutamine."}, "[3]": {"system": "post-operative adhesion formation", "test": "Modified cecal puncture abdominal surgery, histological assessment of post-operative adhesions (Example 1)", "assay_type": "in vivo, male Wistar rats", "settings": "0.3 g/kg intraperitoneal"}}, "note": "Residues, ends and D or L forms follow the SMILES beside them."}
{"smiles": "NC(=O)CC[C@H](N)C(=O)O", "note": "[L-glutamine]", "values": [{"measurement": "complications due to intraperitoneal use", "setting": "[1]", "value": "did not observe complications"}, {"measurement": "reducing and/or preventing post-operative adhesions (including secondary adhesions)", "setting": "[1]; summary statement", "value": "effective"}, {"measurement": "acute inflammatory response (macrophages and macrophage chemotactic proteins)", "setting": "[1]", "value": "reduction, but to a lesser extent"}]}
{"smiles": "C[C@H](N)C(=O)N[C@@H](CCC(N)=O)C(=O)O", "note": "[alanyl-glutamine] (H-Ala-Gln-OH)", "values": [{"measurement": "adhesion score of Zuhlke, et al.", "setting": "[2]", "value": "0-1"}, {"measurement": "complications due to intraperitoneal use", "setting": "[1]", "value": "did not observe complications"}, {"measurement": "effectiveness of dosage", "setting": "[1]; 1.5 g/kg intraperitoneal", "value": "effective"}, {"measurement": "histological appearance of the peritoneum (adhesion)", "setting": "[1]; 10th post-operative day, intraperitoneal, vs untreated and saline treated surgical groups", "value": "very minimal adhesion"}, {"measurement": "reducing and/or preventing post-operative adhesions (including secondary adhesions)", "setting": "[1]; summary statement", "value": "effective"}, {"measurement": "milky spots per 5 high power field (5HPF) in the peritoneum", "setting": "[1]; controls 1 per 5HPF, untreated surgical group 6-7", "value": "the same as the controls"}, {"measurement": "acute inflammatory response (macrophages and macrophage chemotactic proteins)", "setting": "[1]", "value": "markedly reduced"}, {"measurement": "adhesions in all the suture groups (braided and monofilament, absorbable and non-absorbable)", "setting": "[1]; intraperitoneal", "value": "prevented adhesions"}, {"measurement": "effect in adhesion prevention compared with L-glutamine", "setting": "[1]; summary statement", "value": "more pronounced"}, {"measurement": "recurrence of adhesions (secondary adhesions), scored according to Zuhlke, et al.", "setting": "secondary adhesions", "value": "no secondary adhesions were seen"}, {"measurement": "effectiveness of dosage", "setting": "[3]", "value": "effective"}]}
